Data published in patent US9322066B2, “Predictors for cancer treatment” (priority 2011, dated 2016).

Tested on: relapsed or refractory, rituximab-naive or -sensitive follicular B-cell NHL
Assay: Time to progression (TTP), Vc-R vs rituximab study, by biomarker
Assay type: in vivo, human
Parameters: TTP Median: unit not given here
Excerpt: Non-Hodgkin lymphoma (NHL) encompasses several unique malignant lymphoid disease entities that vary in clinical behavior, morphologic appearance, immunologic, and molecular phenotype. […] A randomized, open-label, active-controlled, multicenter, multinational, prospective study to compare the efficacy and safety of the combination of bortezomib and rituximab (Vc-R) to single-agent rituximab in subjects who have relapsed or refractory, rituximab-naive or -sensitive follicular B-cell NHL was performed.
Subjects were centrally randomized to Treatment Groups A (Vc-R) or B (rituximab) in a 1:1 ratio taking into account the following stratification factors: • Follicular Lymphoma International Prognostic Index (FLIPI) score (low [0 or 1 factor], intermediate [2 factors], high [≧3 factors]); • Prior rituximab therapy (yes, no); • Time since last dose of anti-lymphoma therapy (≦1 year, >1 year); • Region (United States/Canada, European Union, Rest of World).
For single-marker association analyses and pair-wise comparisons, a log rank test and Cox proportional hazard model was utilized for assessments of PFS, TTP, and OS between the treatment groups. Kaplan-Meier curves were utilized to estimate the distribution differences between groups in the time-to-event analyses. Comparison of the response rates between the treatment groups was conducted using the Fishers exact test. Single-marker association analyses were stratified by the covariates.
For pair-wise comparison analysis, biomarker pairs were formed by combinations of two markers. A log rank test was utilized for assessments of PFS, TTP, and OS between the treatment groups in the subpopulation defined by biomarker pairs. Kaplan-Meier curves were utilized to estimate the distribution differences between groups in the time-to-event analyses. Comparison of the response rates between the treatment groups was conducted using the Fishers exact test. Methods of Analysis for the multiple biomarker comparison models can be found in section 4.6.

[1] = 20S % NUCLEAR STAINING: 30-50, 2 Prior Lines of Therapy
[2] = 20S % NUCLEAR STAINING: 60-70, Male
[3] = 20S % POSITIVE CYTOPLASMIC SIGNAL: 0-20, >65 years old
[4] = 20S % POSITIVE CYTOPLASMIC SIGNAL: 95-100, Ann Arbor Stage IV
[5] = 20S INTENSITY CYTOPLASMIC SIGNAL: ≧3+, Male
[6] = CD68 OVERALL POSITIVE: 0-25, 2 Prior Lines of Therapy
[7] = CD68 OVERALL POSITIVE: 0-25, ≦1 year since last anti-lymphoma treatment
[8] = CD68 OVERALL POSITIVE: 26-50, Ann Arbor Stage IV
[9] = CD68 OVERALL POSITIVE: 26-50, High FLIPI Score
[10] = CD68 OVERALL POSITIVE: 26-50, No High Tumor Burden
[11] = CD68 OVERALL POSITIVE: 26-50, Rest of World
[12] = CD68 OVERALL POSITIVE: 26-50, ≦65 years old
[13] = CD68 POSITIVE FOLLICULAR: 0-25, >1 year since last anti-lymphoma treatment
[14] = CD68 POSITIVE FOLLICULAR: 26-50, 1 Prior Line of Therapy
[15] = CD68 POSITIVE FOLLICULAR: 26-50, High FLIPI Score
[16] = CD68 POSITIVE FOLLICULAR: 26-50, No High Tumor Burden
[17] = CD68 POSITIVE FOLLICULAR: 26-50, No Subgroup
[18] = CD68 POSITIVE FOLLICULAR: 26-50, White
[19] = CD68 POSITIVE FOLLICULAR: 26-50, ≦65 years old
[20] = CD68 POSITIVE FOLLICULAR: 51-75, Female
[21] = CD68 POSITIVE PERIFOLLICULAR: 0-25, 2 Prior Lines of Therapy
[22] = CD68 POSITIVE PERIFOLLICULAR: 26-50, Male
[23] = CD68 POSITIVE PERIFOLLICULAR: 26-50, Other
[24] = CD68 POSITIVE PERIFOLLICULAR: >75, 1 Prior Line of Therapy
[25] = CD68 POSITIVE PERIFOLLICULAR: >75, ≦65 years old
[26] = P27 % NUCLEI POSITIVE: 30-50, Ann Arbor Stage IV
[27] = P27 % NUCLEI POSITIVE: 60-70, Intermediate FLIPI Score
[28] = P27 SIGNAL INTENSITY: ≧2+, 4 Prior Lines of Therapy
[29] = P27 SIGNAL INTENSITY: ≧2+, Ann Arbor Stage IV
[30] = P27 SIGNAL INTENSITY: ≧2+, Male
[31] = P27 SIGNAL INTENSITY: ≧2+, ≦65 years old
[32] = P65 % NUCLEAR STAINING: 0, Male
[33] = P65 % NUCLEAR STAINING: 0, No Prior Rituximab Therapy
[34] = P65 % NUCLEAR STAINING: 0, ≦65 years old
[35] = P65 % POSITIVE CYTOPLASMIC SIGNAL: >90%, 1 Prior Line of Therapy
[36] = P65 % POSITIVE CYTOPLASMIC SIGNAL: >90%, >1 year since last anti-lymphoma treatment
[37] = P65 % POSITIVE CYTOPLASMIC SIGNAL: >90%, Ann Arbor Stage IV
[38] = P65 % POSITIVE CYTOPLASMIC SIGNAL: >90%, High FLIPI Score
[39] = P65 % POSITIVE CYTOPLASMIC SIGNAL: >90%, Male
[40] = P65 % POSITIVE CYTOPLASMIC SIGNAL: >90%, No Prior Rituximab Therapy
[41] = P65 % POSITIVE CYTOPLASMIC SIGNAL: >90%, No Subgroup
[42] = P65 % POSITIVE CYTOPLASMIC SIGNAL: >90%, White
[43] = P65 % POSITIVE CYTOPLASMIC SIGNAL: >90%, ≦65 years old
[44] = P65 % POSITIVE CYTOPLASMIC SIGNAL: ≦90%, Intermediate FLIPI Score
[45] = P65 INTENSITY CYTOPLASMIC SIGNAL: ≦1+, Ann Arbor Stage III
[46] = P65 INTENSITY CYTOPLASMIC SIGNAL: ≧2+, High FLIPI Score
[47] = P65 INTENSITY CYTOPLASMIC SIGNAL: ≧2+, ≦65 years old
[48] = PSMB1/A171S: G/G, Ann Arbor Stage IV, IRC review
[49] = PSMB1/A171S: G/G, High Tumor Burden, IRC review

rituximab
TTP Evt/N [1]: 11/13
TTP Median [1]: 239
TTP Evt/N [2]: 13/16
TTP Median [2]: 212
TTP Evt/N [3]: 5/6
TTP Median [3]: 278
TTP Evt/N [4]: 43/56
TTP Median [4]: 278
TTP Evt/N [5]: 20/27
TTP Median [5]: 280
TTP Evt/N [6]: 6/8
TTP Median [6]: 142
TTP Evt/N [7]: 11/18
TTP Median [7]: 424
TTP Evt/N [8]: 44/56
TTP Median [8]: 277
TTP Evt/N [9]: 36/45
TTP Median [9]: 277
TTP Evt/N [10]: 37/54
TTP Median [10]: 357
TTP Evt/N [11]: 40/51
TTP Median [11]: 277
TTP Evt/N [12]: 57/77
TTP Median [12]: 278
TTP Evt/N [13]: 23/34
TTP Median [13]: 357
TTP Evt/N [14]: 26/39
TTP Median [14]: 349
TTP Evt/N [15]: 31/37
TTP Median [15]: 205
TTP Evt/N [16]: 29/44
TTP Median [16]: 351
TTP Evt/N [17]: 65/91
TTP Median [17]: 277
TTP Evt/N [18]: 53/77
TTP Median [18]: 334
TTP Evt/N [19]: 52/67
TTP Median [19]: 270
TTP Evt/N (CD68 POSITIVE FOLLICULAR: 51-75, 3 Prior Lines of Therapy): 1/4
TTP Evt/N [20]: 14/26
TTP Median [20]: 708
TTP Evt/N [21]: 7/8
TTP Median [21]: 70
TTP Evt/N [22]: 22/30
TTP Median [22]: 239
TTP Evt/N [23]: 4/4
TTP Median [23]: 128
TTP Evt/N [24]: 13/18
TTP Median [24]: 275
TTP Evt/N [25]: 17/23
TTP Median [25]: 275
TTP Evt/N [26]: 15/19
TTP Median [26]: 278
TTP Evt/N [27]: 6/13
TTP Median [27]: 513
TTP Evt/N [28]: 9/15
TTP Median [28]: 348
TTP Evt/N [29]: 64/85
TTP Median [29]: 283
TTP Evt/N [30]: 52/72
TTP Median [30]: 280
TTP Evt/N [31]: 104/153
TTP Median [31]: 281
TTP Evt/N [32]: 56/74
TTP Median [32]: 280
TTP Evt/N [33]: 77/102
TTP Median [33]: 322
TTP Evt/N [34]: 97/138
TTP Median [34]: 287
TTP Evt/N [35]: 56/89
TTP Median [35]: 349
TTP Evt/N [36]: 77/117
TTP Median [36]: 357
TTP Evt/N [37]: 67/87
TTP Median [37]: 275
TTP Evt/N [38]: 61/83
TTP Median [38]: 239
TTP Evt/N [39]: 54/72
TTP Median [39]: 271
TTP Evt/N [40]: 80/112
TTP Median [40]: 345
TTP Evt/N [41]: 139/204
TTP Median [41]: 334
TTP Evt/N [42]: 119/179
TTP Median [42]: 345
TTP Evt/N [43]: 108/154
TTP Median [43]: 278
TTP Evt/N [44]: 5/16
TTP Median [44]: 567
TTP Evt/N [45]: 7/11
TTP Median [45]: 204
TTP Evt/N [46]: 60/80
TTP Median [46]: 275
TTP Evt/N [47]: 105/152
TTP Median [47]: 287
TTP Evt/N [48]: 95/127
TTP Median [48]: 278
TTP Evt/N [49]: 110/147
TTP Median [49]: 273
TTP Evt/N (PSMB1/A171S: G/G, ≦65 years old, IRC review): 131/198
